Measured values reported in patent US8859573B2, “Pyrimidinone and pyridinone compounds for use in the treatment of diseases or conditions mediated by Lp-PLA2” (Glaxo Group Limited, priority 2010, dated 2014).
Counter-ions that a name gives are not always drawn.

Target: T1, Lp-PLA2 from plasma (Homo sapiens, UniProt Q13093)
T1 construct: from tissue; host or cells: pooled human plasma
T1 sequence (Q13093 22-441): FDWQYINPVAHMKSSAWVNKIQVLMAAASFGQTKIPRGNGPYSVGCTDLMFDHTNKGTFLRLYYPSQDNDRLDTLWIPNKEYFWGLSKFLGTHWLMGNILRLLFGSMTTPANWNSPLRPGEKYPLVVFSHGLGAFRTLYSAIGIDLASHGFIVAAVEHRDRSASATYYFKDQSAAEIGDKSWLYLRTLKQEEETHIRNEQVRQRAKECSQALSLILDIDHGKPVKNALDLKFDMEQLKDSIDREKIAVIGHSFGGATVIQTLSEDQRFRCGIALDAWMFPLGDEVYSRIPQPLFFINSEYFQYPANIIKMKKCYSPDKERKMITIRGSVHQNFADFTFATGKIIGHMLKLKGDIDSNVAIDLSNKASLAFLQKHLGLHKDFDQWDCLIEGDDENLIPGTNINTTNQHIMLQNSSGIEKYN
Test: Lp-PLA2 human plasma assay (Thio-PAF assay)
Type: biochemical
Details: pooled human plasma; read-out: pIC50 values in the thio-PAF assay (converted)
Description: (3) Lipoprotein-Associated Phospholipase A2 (Lp-PLA2) Human Plasma Assay (Also Referred to as “Thio-PAF Assay”)
The human plasma assay utilizes a thioester analog of PAF (phosphatidylcholine), where hydrolysis yields to the formation of a phospholipid containing a free thiol group. The amount of thiol is quantitated continuously by reacting with CPM (7-diethylamino-3-(4′-maleimidylphenyl)-4-methylcoumarin), a maleimide which increases in fluoresence after Michael addition of thiols. This assay may detect the activity of Lp-PLA2 from plasma, as determined by specific inhibition by Lp-PLA2 inhibitors.
The thio-PAF assay was run as a quenched 15 μL assay. Compounds source plate was prepared by making 1:3 (by volume) serial dilution of the compounds into pure DMSO on 384-well microplate. 0.01 μL of compounds on compound source plate were transferred to 384 well Greiner 784076 (black) low-volume plates by ECHO liquid dispenser. 8 μL pooled human plasma, which was previously aliquoted and frozen, was added. Plates were centrifuged for 10 sec at 500 rpm. After 30 minutes preincubation, 2 μL of substrate (2.5 mM thio-PAF, 3.2 mM NEM (N-ethylmaleimide) [made fresh daily in DMSO], and 32 μM CPM [from a DMSO stock] in assay buffer of 50 mM HEPES, pH7.4, 150 mM NaCl, 1 mM CHAPS was added to 384 well Greiner 784076 (black) low-volume plates by BRAVO liquid handling station. Plates were centrifuged for 10 sec at 500 rpm. Plate was covered to protect from light and incubated for 2 min at room temperature. Reaction was quenched with 5 μL of 5% aqueous trifluoroacetic acid (TFA). Plates were covered to protect from light and incubated for 40 min at room temperature. Plates were read at ex: 380/em: 485 using-Envision microplate reader. PIC50 data, curve and QC analysis was conducted by using XLFit module in Excel.

SMILES | IC50
Cn1cc(Cn2ccc(OCc3ccc(Oc4ccc(Cl)c(C(F)(F)F)c4)c(C#N)c3)nc2=O)cn1 [Example 6, 2-{[4-Chloro-3-(trifluoromethyl)phenyl]oxy}-5-[({1-[(1-methyl-1H-pyrazol-4-yl)methyl]-2-oxo-1,2-dihydro-4-pyrimidinyl}oxy)methyl]benzonitrile] | ≤ 100 nM
COc1ncc(Cn2cc(Cl)c(OCc3ccc(Oc4ccc(F)c(F)c4)c(F)c3)nc2=O)cn1 [Example 54, 5-chloro-4-((4-(3,4-difluorophenoxy)-3-fluorobenzyl)oxy)-1-((2-methoxypyrimidin-5-yl)methyl)pyrimidin-2(1H)-one] | ≤ 100 nM
COc1ncc(Cn2cc(Cl)c(OCCc3cnc(Oc4ccc(F)c(C(F)(F)F)c4)c(F)c3)nc2=O)cn1 [Example 37, 5-chloro-4-(2-(5-fluoro-6-(4-fluoro-3-(trifluoromethyl)phenoxy)pyridin-3-yl)ethoxy)-1-((2-methoxypyrimidin-5-yl)methyl)pyrimidin-2(1H)-one] | ≤ 100 nM
Cn1cc(Cn2cc(F)c(OCCc3ccc(Oc4cccc(C(F)(F)F)n4)cc3)nc2=O)cn1 [Example 64, 5-fluoro-1-((1-methyl-1H-pyrazol-4-yl)methyl)-4-(4-((6-(trifluoromethyl)pyridin-2-yl)oxy)phenethoxy)pyrimidin-2(1H)-one] | ≤ 1000 nM
Cn1cc(Cn2cc(F)c(OCCc3ccc(Oc4ccc(Cl)c(C(F)(F)F)c4)cc3)nc2=O)cn1 [Example 29, 4-{[2-(4-{[4-Chloro-3-(trifluoromethyl)phenyl]oxy}phenyl)ethyl]oxy}-5-fluoro-1-[(1-methyl-1H-pyrazol-4-yl)methyl]-2(1H)-pyrimidinone] | ≤ 100 nM
N#Cc1cc(COc2cc[nH]c(=O)n2)ccc1Oc1ccc(Cl)c(C(F)(F)F)c1 [Example 3, 2-(4-Chloro-3-(trifluoromethyl)phenoxy)-5-(((2-oxo-2,3-dihydropyrimidin-4-yl)oxy)methyl)benzonitrile] | > 10000 nM
COc1ncc(Cn2cc(F)c(OCCc3cnc(Oc4ccc(F)c(C(F)(F)F)c4)c(F)c3)nc2=O)cn1 [Example 43, 5-fluoro-4-(2-(5-fluoro-6-(4-fluoro-3-(trifluoromethyl)phenoxy)pyridin-3-yl)ethoxy)-1-((2-methoxypyrimidin-5-yl)methyl)pyrimidin-2(1H)-one] | ≤ 100 nM
COc1ncc(Cn2cc(F)c(OCCc3cnc(Oc4ccc(Cl)c(C(F)(F)F)c4)c(F)c3)nc2=O)cn1 [Example 34, 4-(2-(6-(4-chloro-3-(trifluoromethyl)phenoxy)-5-fluoropyridin-3-yl)ethoxy)-5-fluoro-1-((2-methoxypyrimidin-5-yl)methyl)pyrimidin-2(1H)-one] | ≤ 100 nM
Cn1cc(Cn2cc(Cl)c(OCCc3cnc(Oc4ccc(F)c(C(F)(F)F)c4)c(F)c3)nc2=O)cn1 [Example 38, 5-chloro-4-(2-(5-fluoro-6-(4-fluoro-3-(trifluoromethyl)phenoxy)pyridin-3-yl)ethoxy)-1-((1-methyl-1H-pyrazol-4-yl)methyl)pyrimidin-2(1H)-one] | ≤ 100 nM
Cn1cc(Cn2ccc(OCc3ccc(Oc4ccc(Cl)c(C(F)(F)F)c4)cn3)nc2=O)cn1 [Example 15, 4-{[(5-{[4-Chloro-3-(trifluoromethyl)phenyl]oxy}-2-pyridinyl)methyl]oxy}-1-[(1-methyl-1H-pyrazol-4-yl)methyl]-2(1H)-pyrimidinone] | ≤ 100 nM
O=c1nc(OCc2ccc(Oc3ccc(Cl)c(C(F)(F)F)c3)cn2)ccn1Cc1cccnc1 [Example 14, 4{[(5-{[4-Chloro-3-(trifluoromethyl)phenyl]oxy}-2-pyridinyl)methyl]oxy}-1-(3-pyridinylmethyl)-2(1H)-pyrimidinone] | ≤ 100 nM
Cn1cc(Cn2cc(F)c(OCCc3ccc(Oc4ccc(Cl)c(C(F)(F)F)c4)cn3)nc2=O)cn1 [Example 55, 4-(2-(5-(4-chloro-3-(trifluoromethyl)phenoxy)pyridin-2-yl)ethoxy)-5-fluoro-1-((1-methyl-1H-pyrazol-4-yl)methyl)pyrimidin-2(1H)-one] | ≤ 100 nM
N#Cc1cc(CNc2ccn(Cc3cccnc3)c(=O)n2)ccc1Oc1ccc(Cl)c(C(F)(F)F)c1 [Example 19, 2-{[4-Chloro-3-(trifluoromethyl)phenyl]oxy}-5-({[2-oxo-1-(3-pyridinylmethyl)-1,2-dihydro-4-pyrimidinyl]amino}methyl)benzonitrile] | ≤ 100 nM
Cn1cc(Cn2cc(F)c(OCCc3ccc(Oc4ccc(F)c(C(F)(F)F)c4)nc3)nc2=O)cn1 [Example 39, 5-fluoro-4-(2-(6-(4-fluoro-3-(trifluoromethyl)phenoxy)pyridin-3-yl)ethoxy)-1-((1-methyl-1H-pyrazol-4-yl)methyl)pyrimidin-2(1H)-one] | ≤ 100 nM
Cn1cc(Cn2cc(F)c(OCCc3cnc(Oc4ccc(F)c(C(F)(F)F)c4)c(F)c3)nc2=O)cn1 [Example 42, 5-fluoro-4-(2-(5-fluoro-6-(4-fluoro-3-(trifluoromethyl)phenoxy)pyridin-3-yl)ethoxy)-1-((1-methyl-1H-pyrazol-4-yl)methyl)pyrimidin-2(1H)-one] | ≤ 100 nM
COc1ncc(Cn2cc(F)c(OCCc3ccc(Oc4ccc(Cl)c(C(F)(F)F)c4)cc3)nc2=O)cn1 [Example 36, 4-(4-(4-chloro-3-(trifluoromethyl)phenoxy)phenethoxy)-5-fluoro-1-((2-methoxypyrimidin-5-yl)methyl)pyrimidin-2(1H)-one] | ≤ 100 nM
CCn1cc(F)c(OCCc2ccc(Oc3ccc(Cl)c(C(F)(F)F)c3)nc2)nc1=O [Example 52, 4-(2-(6-(4-chloro-3-(trifluoromethyl)phenoxy)pyridin-3-yl)ethoxy)-1-ethyl-5-fluoropyrimidin-2(1H)-one] | ≤ 1000 nM
N#Cc1cc(CCOc2ccn(Cc3cccnc3)c(=O)n2)ccc1Oc1ccc(Cl)c(C(F)(F)F)c1 [Example 7, 2-{[4-Chloro-3-(trifluoromethyl)phenyl]oxy}-5-(2-{[2-oxo-1-(3-pyridinylmethyl)-1,2-dihydro-4-pyrimidinyl]oxy}ethyl)benzonitrile trifluoroacetate] | ≤ 100 nM
Cn1cc(Cn2cc(F)c(OCCc3ccc(Oc4ccc(Cl)c(C(F)(F)F)c4)nc3)nc2=O)cn1 [Example 40, 4-(2-(6-(4-chloro-3-(trifluoromethyl)phenoxy)pyridin-3-yl)ethoxy)-5-fluoro-1-((1-methyl-1H-pyrazol-4-yl)methyl)pyrimidin-2(1H)-one] | ≤ 100 nM
O=c1nc(OCCc2ccc(Oc3ccc(Cl)c(C(F)(F)F)c3)cc2)ccn1CCc1cccnc1 [Example 13, 4-{[2-(4-{[4-Chloro-3-(trifluoromethyl)phenyl]oxy}phenyl)ethyl]oxy}-1-[2-(3-pyridinyl)ethyl]-2 (1H)-pyrimidinone trifluoroacetate] | ≤ 1000 nM
N#Cc1cc(COc2ccn(Cc3ccncc3)c(=O)n2)ccc1Oc1ccc(Cl)c(C(F)(F)F)c1 [Example 2, 2-{[4-Chloro-3-(trifluoromethyl)phenyl]oxy}-5-({[2-oxo-1-(4-pyridinylmethyl)-1,2-dihydro-4-pyrimidinyl]oxy}methyl)benzonitrile trifluoroacetate] | ≤ 100 nM
Cn1cc(Cn2ccc(OCCc3ccc(Oc4ccc(Cl)c(C(F)(F)F)c4)cn3)nc2=O)cn1 [Example 16, 4-{[2-(5-{[4-Chloro-3-(trifluoromethyl)phenyl]oxy}-2-pyridinyl)ethyl]oxy}-1-[(1-methyl-1H-pyrazol-4-yl)methyl]-2(1H)-pyrimidinone] | ≤ 100 nM
Cn1cc(Cn2cc(Cl)c(OCCc3ccc(Oc4ccc(Cl)c(C(F)(F)F)c4)cc3)nc2=O)cn1 [Example 30, 5-chloro-4-{[2-(4-{[4-Chloro-3-(trifluoromethyl)phenyl]oxy}phenyl)ethyl]oxy}-1-[(1-methyl-1H-pyrazol-4-yl)methyl]-2(1H)-pyrimidinone] | ≤ 100 nM
COc1ncc(Cn2cc(F)c(OCCc3ccc(Oc4cccc(C(F)(F)F)n4)cc3)nc2=O)cn1 [Example 65, 5-fluoro-1-((2-methoxypyrimidin-5-yl)methyl)-4-(4-((6-(trifluoromethyl)pyridin-2-yl)oxy)phenethoxy)pyrimidin-2(1H)-one] | ≤ 1000 nM
Cn1cc(Cn2ccc(OCCc3ccc(Oc4ccc(Cl)c(C(F)(F)F)c4)cc3)cc2=O)cn1 [Example 24, 4-{[2-(4-{[4-Chloro-3-(trifluoromethyl)phenyl]oxy}phenyl)ethyl]oxy}-1-[(1-methyl-1H-pyrazol-4-yl)methyl]-2(1H)-pyridinone] | ≤ 1000 nM
